Results taken from US20060165717A1 (priority 2005, published 2006).

Test system: Balb/c mice
Test: Immunization of mice with detoxified TAT vaccine compositions; TAT-specific IgG by ELISA
Assay type: in vivo
Conditions: 2 subcutaneous injections D0, D21, 1 μg TAT antigen
Method: Vaccine compositions comprising, as antigen, a detoxified TAT III B protein are prepared. The TAT protein was detoxified by means of an alkylation reaction in an alkaline medium using iodoacetamide under the following conditions: number of micromoles of iodoacetamide=200×number of micromoles of TAT+number of micromoles of DTT. This detoxified protein and the method for preparing it are described in detail in application WO 99/33346, where it is identified under the term “carboxymethylated TAT”.
Immunizing doses having the following composition are the obtained:
Adult Balb/c mice and 1-week-old “newborn” Balb/c mice are provided and are divided up into groups of 6 to 8 (groups of young mice) or of 5 to 6 (groups of adult mice). Experiments are carried out with 2 subcutaneous injections of the same vaccine formulation at D0 and at D21. Blood samples are taken after the booster injection. The TAT-specific immunoglobulins are assayed by the ELISA technique. A total of 10 to 40 mice per formulation was tested in several independent experiments: for the DC-Chol: 27 adults, 38 newborns; for the aluminum oxyhydroxide: 18 adults, 22 newborns; for the emulsion: 10 adults and 16 newborns; and in saline solution: 10 adults and 15 newborns. […]

3β-[N-(N′,N′-dimethyl-aminoethane)carbamoyl]cholesterol [DCchol]
adjuvant effect on TAT-specific total IgG response (FIG. 1), in words (adult Balb/c mice): capable of increasing the immune response
adjuvant effect on TAT-specific total IgG response (FIG. 1), in words (newborn (1-week-old) Balb/c mice): capable of increasing the immune response
